Literature values, collected in patent publication US20050118235A1, “Dietary non-essential amino acid tyrosine regulates the body weight of animals through regulating the animal appetite or food intake” (priority 2003, published 2005).

Tested on: activity anorexia in mice
Conditions: tyrosine injection, activity anorexia in mice (Avraham et al. 2001)

**Q.** For `N[C@@H](Cc1ccc(O)cc1)C(=O)O` [Tyrosine], which “effect on appetite, cognition and exercise tolerance” value is on record?
**A.** The value was “improves appetite, cognition, and exercise tolerance”.
